Assay results published in publication PMC9873571, “Plant-specific features of respiratory supercomplex I + III2 from Vigna radiata” (Nature Plants, 2022).

Assays:
[1] = molecular target: T1, V. radiata complex I (CI), NADH dehydrogenase site (Vigna radiata, UniProt A0A1S3V7V2); experiment: NADH-cytochrome c oxidoreductase activity of purified SC I + III2; type: biochemical; conditions: 10 µM NADH, 100 µM decylubiquinone, 100 µM equine cyt c, pH 7.4
T1 construct: gene LOC106772405; native complex I, in purified supercomplex I + III2 (NADH) or in washed mitochondrial membranes (dNADH)
T1 sequence (A0A1S3V7V2 28-491): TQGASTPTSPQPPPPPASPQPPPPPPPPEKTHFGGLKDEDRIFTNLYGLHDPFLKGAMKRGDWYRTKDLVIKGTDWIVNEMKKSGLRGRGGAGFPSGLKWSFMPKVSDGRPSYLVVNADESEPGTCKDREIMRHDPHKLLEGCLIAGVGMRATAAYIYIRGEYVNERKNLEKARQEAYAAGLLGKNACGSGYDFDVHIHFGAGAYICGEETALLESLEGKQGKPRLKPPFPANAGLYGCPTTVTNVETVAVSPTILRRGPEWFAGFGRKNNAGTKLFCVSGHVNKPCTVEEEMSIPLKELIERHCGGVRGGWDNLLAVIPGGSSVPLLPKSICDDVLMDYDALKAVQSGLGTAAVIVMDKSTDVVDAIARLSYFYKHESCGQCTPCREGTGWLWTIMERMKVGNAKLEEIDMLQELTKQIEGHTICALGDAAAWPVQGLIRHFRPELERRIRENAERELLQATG
T1 sequence (A0A1S3TQ85 32-746 partner): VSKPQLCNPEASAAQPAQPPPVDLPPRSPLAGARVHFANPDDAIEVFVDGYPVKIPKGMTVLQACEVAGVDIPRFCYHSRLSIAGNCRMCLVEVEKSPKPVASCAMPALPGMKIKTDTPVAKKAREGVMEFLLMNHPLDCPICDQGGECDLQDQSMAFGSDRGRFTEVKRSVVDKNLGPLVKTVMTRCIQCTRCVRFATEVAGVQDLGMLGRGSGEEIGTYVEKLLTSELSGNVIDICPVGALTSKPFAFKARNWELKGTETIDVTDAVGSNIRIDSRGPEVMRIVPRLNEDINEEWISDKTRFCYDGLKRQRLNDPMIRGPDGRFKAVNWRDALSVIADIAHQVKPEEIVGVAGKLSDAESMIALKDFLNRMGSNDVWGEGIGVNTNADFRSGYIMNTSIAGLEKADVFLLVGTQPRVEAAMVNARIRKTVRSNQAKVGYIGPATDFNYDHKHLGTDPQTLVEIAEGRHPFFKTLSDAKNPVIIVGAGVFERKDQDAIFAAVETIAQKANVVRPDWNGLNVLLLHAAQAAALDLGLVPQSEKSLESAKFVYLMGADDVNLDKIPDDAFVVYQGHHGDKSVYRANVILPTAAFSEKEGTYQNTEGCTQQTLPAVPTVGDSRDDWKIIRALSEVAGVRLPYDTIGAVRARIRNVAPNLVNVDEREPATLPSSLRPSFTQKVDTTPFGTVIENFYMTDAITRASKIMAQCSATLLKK
T1 sequence (A0A1S3U769 25-251 partner): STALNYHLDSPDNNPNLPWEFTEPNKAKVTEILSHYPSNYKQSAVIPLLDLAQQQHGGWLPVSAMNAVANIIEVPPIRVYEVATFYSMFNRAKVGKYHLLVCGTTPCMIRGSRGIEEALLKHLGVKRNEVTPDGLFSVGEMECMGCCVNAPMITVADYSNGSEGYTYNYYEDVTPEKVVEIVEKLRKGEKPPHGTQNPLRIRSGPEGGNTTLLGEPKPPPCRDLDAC

[2] = molecular target: T2, V. radiata SC I + III2 (complex I, quinone-binding site) (Vigna radiata, UniProt A0A1S3U8J5+E9KZL0+E9KZN6); experiment: NADH-cytochrome c oxidoreductase activity, A550; type: biochemical; conditions: 20 mM HEPES pH 7.4, 50 mM NaCl, 10% glycerol, 100 µM decylubiquinone, 100 µM equine cyt c, 10 µM NADH, 4 μM KCN
T2 construct: gene nad7; native complex I (14 core + 34 accessory subunits) in supercomplex I + III2, from etiolated hypocotyl mitochondria, digitonin-extracted, amphipol A8-35 stabilized, SEC purified; assayed as NADH-cyt c oxidoreductase; nad1 and NDUS2 transcripts RNA-edited
T2 sequence (E9KZN6 entry or part of it): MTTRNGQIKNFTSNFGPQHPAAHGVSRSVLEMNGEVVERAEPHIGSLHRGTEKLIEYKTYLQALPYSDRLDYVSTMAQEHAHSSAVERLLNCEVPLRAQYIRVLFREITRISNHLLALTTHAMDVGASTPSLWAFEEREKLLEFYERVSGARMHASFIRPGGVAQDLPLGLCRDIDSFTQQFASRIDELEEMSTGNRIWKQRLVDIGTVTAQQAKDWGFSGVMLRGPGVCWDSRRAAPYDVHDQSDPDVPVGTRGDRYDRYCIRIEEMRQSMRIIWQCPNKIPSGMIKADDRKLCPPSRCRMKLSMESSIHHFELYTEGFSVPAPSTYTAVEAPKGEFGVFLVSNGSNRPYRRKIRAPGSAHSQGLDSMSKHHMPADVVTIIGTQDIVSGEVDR
T2 sequence (E9KZL0 entry or part of it): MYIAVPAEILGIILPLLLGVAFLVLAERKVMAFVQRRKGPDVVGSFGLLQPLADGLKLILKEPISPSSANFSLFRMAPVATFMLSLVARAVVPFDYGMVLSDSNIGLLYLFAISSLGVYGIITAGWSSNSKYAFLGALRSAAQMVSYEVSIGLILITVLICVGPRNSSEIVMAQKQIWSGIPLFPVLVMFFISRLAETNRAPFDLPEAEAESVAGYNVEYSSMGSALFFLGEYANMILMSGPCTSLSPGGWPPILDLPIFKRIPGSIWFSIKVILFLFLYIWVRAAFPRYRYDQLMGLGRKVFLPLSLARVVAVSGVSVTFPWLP
T2 sequence (A0A1S3U8J5 entry or part of it): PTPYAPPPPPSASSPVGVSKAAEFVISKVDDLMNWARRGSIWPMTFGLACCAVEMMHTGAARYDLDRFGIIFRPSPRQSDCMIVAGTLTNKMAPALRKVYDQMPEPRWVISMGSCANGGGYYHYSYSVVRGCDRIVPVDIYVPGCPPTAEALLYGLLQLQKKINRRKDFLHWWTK

SMILES	NADH-cytochrome c oxidoreductase activity of purified SC I + III2 [1]	inhibition at 20 μM [2]
NC(=O)C1=CN([C@@H]2O[C@H](COP(=O)(O)OP(=O)(O)OC[C@H]3O[C@@H](n4cnc5c(N)ncnc54)[C@H](O)[C@@H]3O)[C@@H](O)[C@H]2O)C=CC1 [NADH]	The final biochemical sample showed the expected NADH-cyt c oxidoreductase activity	
C/C=C(\C)[C@H](O)[C@H](C)/C=C(C)/C=C/C/C(C)=C/Cc1nc(OC)c(OC)c(O)c1C [piericidin A]		inhibited by CI and CIII2 inhibitors piericidin A and antimycin A, respectively
